Source: ChEMBL document CHEMBL5247586, “Discovery of fusidic acid derivatives as novel STING inhibitors for treatment of sepsis” (Eur J Med Chem, 2022)
Active and inactive are the calls of the source. The rule behind the calls is not given here.

Key:
[1] = molecular target: Transcription factor p65 (Mus musculus) (UniProt Q04207); test: Inhibition of p65 phosphorylation in LPS-induced mouse RAW264.7 cells preincubated with compound for 2 hrs followed by LPS stimulation and measured after 6 hrs by Western blot analysis; format: cell-based; conditions: dose 0.5-2 µM, time 8.0 hrs
Chain of Transcription factor p65 (Mus musculus) (Q04207 whole entry): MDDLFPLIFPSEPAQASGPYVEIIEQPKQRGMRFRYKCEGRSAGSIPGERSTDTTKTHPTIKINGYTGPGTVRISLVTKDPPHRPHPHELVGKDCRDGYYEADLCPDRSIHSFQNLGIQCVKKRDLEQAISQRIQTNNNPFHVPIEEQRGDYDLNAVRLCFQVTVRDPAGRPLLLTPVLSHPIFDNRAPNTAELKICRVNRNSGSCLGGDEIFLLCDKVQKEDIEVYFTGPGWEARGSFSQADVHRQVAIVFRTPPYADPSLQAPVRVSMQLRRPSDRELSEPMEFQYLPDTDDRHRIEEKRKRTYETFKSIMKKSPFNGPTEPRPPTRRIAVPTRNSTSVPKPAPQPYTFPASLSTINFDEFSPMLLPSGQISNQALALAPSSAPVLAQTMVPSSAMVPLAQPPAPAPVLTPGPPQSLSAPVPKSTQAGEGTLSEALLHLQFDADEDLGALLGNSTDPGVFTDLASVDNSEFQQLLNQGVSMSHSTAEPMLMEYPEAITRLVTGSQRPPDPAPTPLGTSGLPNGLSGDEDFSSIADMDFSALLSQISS

[2] = MRT(0 to infinity) in Sprague-Dawley rat administered intragastrically; format: ADME; conditions: in vivo, po, route ig
[3] = test system: RAW264.7; test: Inhibition of STING protein expression in LPS-induced mouse RAW264.7 cells preincubated with compound for 2 hrs followed by LPS stimulation and measured after 6 hrs by Western blot analysis; format: functional, cell-based; conditions: dose 0.5-2 µM, time 8.0 hrs
[4] = test system: Mus musculus; test: (§1) Protective activity against LPS induced sepsis in BALB/c mouse model of acute liver injury assessed as reduction in inflammatory cell infiltration at 1.25 to 5 mg/kg, IG administered once a day for 3 days followed by LPS stimulation for 12 hrs starting from 2 hrs post last dose by hematoxylin and eosin staining based analysis; format: functional, organism-based; conditions: dose 1.25-5 mg/kg, time 86.0 hrs
[5] = Cmax in Sprague-Dawley rat administered intragastrically; format: ADME; design: route ig; conditions: in vivo, po
[6] = test system: Mus musculus; test: as §1, with “improvement of disorderly arranged liver tissue” for “reduction in inflammatory cell infiltration”; format: functional, organism-based; conditions: dose 1.25-5 mg/kg, time 86.0 hrs
[7] = test system: Mus musculus; test: Anti-sepsis activity against BALB/c mouse model of LPS induced sepsis assessed as reduction in STING protein expression in liver at 1.25 to 5 mg/kg, IG administered once a day for 3 days followed by LPS stimulation for 12 hrs starting from 2 hrs post last dose by Western blot analysis; format: functional, organism-based; conditions: dose 1.25-5 mg/kg, time 86.0 hrs
[8] = molecular target: T1, Stimulator of interferon genes protein (Mus musculus) (UniProt Q3TBT3); test: In vivo inhibition of STING in BALB/c mouse model of LPS induced sepsis assessed as inhibition of upregulation of phosphorylated IRF3 protein expression at 1.25 to 5 mg/kg, IG administered once a day for 3 days followed by LPS stimulation for 12 hrs starting from 2 hrs post last dose by Western blot analysis; format: functional, organism-based; conditions: dose 1.25-5 mg/kg, time 86.0 hrs
T1 sequence (whole entry): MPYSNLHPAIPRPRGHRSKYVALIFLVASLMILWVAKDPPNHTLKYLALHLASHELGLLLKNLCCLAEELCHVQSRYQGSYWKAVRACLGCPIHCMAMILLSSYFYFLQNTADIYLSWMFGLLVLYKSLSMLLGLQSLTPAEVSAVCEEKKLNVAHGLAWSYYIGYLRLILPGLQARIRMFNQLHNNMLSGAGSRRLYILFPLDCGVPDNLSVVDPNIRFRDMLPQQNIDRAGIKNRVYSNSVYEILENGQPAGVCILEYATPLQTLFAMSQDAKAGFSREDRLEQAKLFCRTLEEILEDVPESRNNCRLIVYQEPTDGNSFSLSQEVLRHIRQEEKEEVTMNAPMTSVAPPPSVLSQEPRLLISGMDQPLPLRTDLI

[9] = test system: Mus musculus; test: as §1, with “improvement” for “reduction”, “congested hepatic sinusoids” for “inflammatory cell infiltration”; format: functional, organism-based; conditions: dose 1.25-5 mg/kg, time 86.0 hrs

C=CCONC(=O)CCSSCCC(=O)O[C@@H]1CC[C@@]2(C)[C@@H](CC[C@@]3(C)[C@H]2[C@H](O)C[C@H]2/C(=C(\CCC=C(C)C)C(=O)OCc4ccccc4)[C@@H](OC(C)=O)C[C@@]23C)[C@@H]1C
inhibition [1]: Dose-Dependent Effect | MRT inf [2]: 2.02 h | inhibition [3]: Dose-Dependent Effect | Activity [4]: Active | Cmax [5]: 66.5 ng/mL | Activity [6]: Active | Activity [7]: Active | inhibition [8]: Active | Activity [9]: Active
